Assay results as given in the NIST ThermoML archive (doi:10.1021/je060271a).
± gives the expanded uncertainty stated by the source.

Conditions: 303.15 K, Liquid, Vibrating tube method

CCCCC(=O)OCC(COC(=O)CCCC)(COC(=O)CCCC)COC(=O)CCCC [pentaerythritol tetrapentanoate]
Conditions | mass density [kg/m3]
18990 kPa | 1022.6 ± 1.2
19023 kPa | 1022.8 ± 1.2
19056 kPa | 1022.6 ± 1.2
19094 kPa | 1022.8 ± 1.2
19127 kPa | 1022.7 ± 1.2
19159 kPa | 1022.9 ± 1.2
19198 kPa | 1022.9 ± 1.2
19232 kPa | 1022.8 ± 1.2
19265 kPa | 1022.8 ± 1.2
19304 kPa | 1022.8 ± 1.2
19338 kPa | 1022.9 ± 1.2
19372 kPa | 1023 ± 1.2
19412 kPa | 1022.9 ± 1.2
19446 kPa | 1022.9 ± 1.2
19480 kPa | 1023 ± 1.2
19515 kPa | 1023 ± 1.2
19556 kPa | 1023 ± 1.2
19590 kPa | 1023.1 ± 1.2
19630 kPa | 1023 ± 1.2
19702 kPa | 1023.1 ± 1.2
19736 kPa | 1023.1 ± 1.2
19778 kPa | 1023.2 ± 1.2
19813 kPa | 1023.2 ± 1.2
19856 kPa | 1023.2 ± 1.2
19893 kPa | 1023.1 ± 1.2
19930 kPa | 1023.2 ± 1.2
19968 kPa | 1023.2 ± 1.2
20013 kPa | 1023.3 ± 1.2
20051 kPa | 1023.4 ± 1.2
20090 kPa | 1023.2 ± 1.2
20134 kPa | 1023.3 ± 1.2
20161 kPa | 1023.4 ± 1.2
20186 kPa | 1023.3 ± 1.2
20215 kPa | 1023.3 ± 1.2
20240 kPa | 1023.4 ± 1.2
20265 kPa | 1023.5 ± 1.2
20290 kPa | 1023.6 ± 1.2
20321 kPa | 1023.4 ± 1.2
20346 kPa | 1023.4 ± 1.2
20370 kPa | 1023.5 ± 1.2
20396 kPa | 1023.5 ± 1.2
20425 kPa | 1023.6 ± 1.2
20451 kPa | 1023.5 ± 1.2
20481 kPa | 1023.6 ± 1.2
20506 kPa | 1023.5 ± 1.2
20532 kPa | 1023.6 ± 1.2
20561 kPa | 1023.6 ± 1.2
20587 kPa | 1023.6 ± 1.2
20613 kPa | 1023.7 ± 1.2
20644 kPa | 1023.6 ± 1.2
20671 kPa | 1023.6 ± 1.2
20697 kPa | 1023.6 ± 1.2
20723 kPa | 1023.7 ± 1.2
20754 kPa | 1023.6 ± 1.2
20780 kPa | 1023.7 ± 1.2
20806 kPa | 1023.8 ± 1.2
20837 kPa | 1023.8 ± 1.2
20864 kPa | 1023.9 ± 1.2
20890 kPa | 1023.7 ± 1.2
20920 kPa | 1023.8 ± 1.2
20947 kPa | 1023.7 ± 1.2
20974 kPa | 1023.8 ± 1.2
21007 kPa | 1023.7 ± 1.2
21030 kPa | 1023.9 ± 1.2
21062 kPa | 1023.9 ± 1.2
21089 kPa | 1023.8 ± 1.2
21122 kPa | 1023.8 ± 1.2
21149 kPa | 1023.9 ± 1.2
21176 kPa | 1024 ± 1.2
21208 kPa | 1024 ± 1.2
21236 kPa | 1024 ± 1.2
21263 kPa | 1023.8 ± 1.2
21291 kPa | 1024 ± 1.2
21324 kPa | 1024.1 ± 1.2
21351 kPa | 1024.1 ± 1.2
21384 kPa | 1024.1 ± 1.2
21412 kPa | 1024 ± 1.2
21440 kPa | 1024.1 ± 1.2
21472 kPa | 1024.1 ± 1.2
21500 kPa | 1024.2 ± 1.2
21528 kPa | 1024.1 ± 1.2
21557 kPa | 1024.1 ± 1.2
21593 kPa | 1024.2 ± 1.2
21622 kPa | 1024.2 ± 1.2
21658 kPa | 1024.3 ± 1.2
21688 kPa | 1024.2 ± 1.2
21718 kPa | 1024.4 ± 1.2
21754 kPa | 1024.3 ± 1.2
21784 kPa | 1024.2 ± 1.2
21814 kPa | 1024.3 ± 1.2
21844 kPa | 1024.4 ± 1.2
21881 kPa | 1024.2 ± 1.2
21911 kPa | 1024.4 ± 1.2
21942 kPa | 1024.4 ± 1.2
21979 kPa | 1024.4 ± 1.2
22009 kPa | 1024.5 ± 1.2
22046 kPa | 1024.4 ± 1.2
22077 kPa | 1024.5 ± 1.2
22109 kPa | 1024.4 ± 1.2
22140 kPa | 1024.5 ± 1.2
22178 kPa | 1024.5 ± 1.2
22210 kPa | 1024.6 ± 1.2
22242 kPa | 1024.6 ± 1.2
22279 kPa | 1024.6 ± 1.2
22311 kPa | 1024.6 ± 1.2
22343 kPa | 1024.7 ± 1.2
22375 kPa | 1024.6 ± 1.2
22414 kPa | 1024.6 ± 1.2
22446 kPa | 1024.6 ± 1.2
22478 kPa | 1024.6 ± 1.2
22517 kPa | 1024.7 ± 1.2
22550 kPa | 1024.8 ± 1.2
22583 kPa | 1024.7 ± 1.2
22622 kPa | 1024.8 ± 1.2
22656 kPa | 1024.7 ± 1.2
22688 kPa | 1024.7 ± 1.2
22722 kPa | 1024.8 ± 1.2
22761 kPa | 1024.8 ± 1.2
22794 kPa | 1024.9 ± 1.2
22828 kPa | 1024.9 ± 1.2
22868 kPa | 1024.9 ± 1.2
22901 kPa | 1024.9 ± 1.2
22942 kPa | 1024.9 ± 1.2
22975 kPa | 1024.9 ± 1.2
23009 kPa | 1024.9 ± 1.2
23043 kPa | 1025.1 ± 1.2
23084 kPa | 1025 ± 1.2
23119 kPa | 1025.1 ± 1.2
23154 kPa | 1025 ± 1.2
23195 kPa | 1025 ± 1.2
23230 kPa | 1025.1 ± 1.2
23265 kPa | 1025.2 ± 1.2
23307 kPa | 1025.2 ± 1.2
23342 kPa | 1025.2 ± 1.2
23378 kPa | 1025.2 ± 1.2
23413 kPa | 1025.2 ± 1.2
23456 kPa | 1025.2 ± 1.2
23492 kPa | 1025.3 ± 1.2
23534 kPa | 1025.2 ± 1.2
23572 kPa | 1025.1 ± 1.2
23609 kPa | 1025.3 ± 1.2
23646 kPa | 1025.4 ± 1.2
23680 kPa | 1025.3 ± 1.2
23726 kPa | 1025.4 ± 1.2
23761 kPa | 1025.5 ± 1.2
23798 kPa | 1025.6 ± 1.2
23843 kPa | 1025.5 ± 1.2
23878 kPa | 1025.4 ± 1.2
23926 kPa | 1025.5 ± 1.2
23961 kPa | 1025.6 ± 1.2
23996 kPa | 1025.5 ± 1.2
24033 kPa | 1025.7 ± 1.2
24084 kPa | 1025.5 ± 1.2
24123 kPa | 1025.6 ± 1.2
24162 kPa | 1025.7 ± 1.2
24202 kPa | 1025.6 ± 1.2
24250 kPa | 1025.7 ± 1.2
24285 kPa | 1025.8 ± 1.2
24316 kPa | 1025.7 ± 1.2
24353 kPa | 1025.8 ± 1.2
24383 kPa | 1025.8 ± 1.2
